For series [1] the following is noted: cited by Chatterjee, CALIBR model system; cited from earlier work.
For series [2] the following is noted: rat microsomes; cited from earlier work.
The conditions of series [3]: human microsomes; cited from earlier work.
For series [4] the following is noted: mouse microsomes; cited from earlier work.
A further series relates to malaria-infected mice. As to conditions: cited from earlier work.
Series [5] deals with multidrug resistant P. falciparum strains. As to conditions: cited from earlier work.
Another series deals with P. falciparum cyt bc1 (Plasmodium falciparum, UniProt Q02768). As to conditions: cited from earlier work.
Chain of P. falciparum cyt bc1 (Q02768 whole entry): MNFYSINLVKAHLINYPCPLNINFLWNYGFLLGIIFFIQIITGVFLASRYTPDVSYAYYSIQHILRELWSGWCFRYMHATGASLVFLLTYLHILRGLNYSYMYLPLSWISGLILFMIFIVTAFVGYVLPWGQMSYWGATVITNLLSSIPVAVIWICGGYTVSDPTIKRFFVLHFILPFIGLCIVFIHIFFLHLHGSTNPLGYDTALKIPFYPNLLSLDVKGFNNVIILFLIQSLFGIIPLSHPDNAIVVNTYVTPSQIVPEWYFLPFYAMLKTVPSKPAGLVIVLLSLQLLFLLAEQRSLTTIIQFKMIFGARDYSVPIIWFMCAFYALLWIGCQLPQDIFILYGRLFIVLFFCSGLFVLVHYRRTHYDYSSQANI
The next series has as its system ATV resistant parasites. As to conditions: cited from earlier work.
Series [6] deals with patent malaria infections in mice. To be noted: oral drug delivery, single dose; cited from earlier work.
The test system of series [7] is P. yoelii luciferase expressing parasites (PyXNL non-lethal strain, luc+). Put plainly: Protection against P. yoelii sporozoite-induced infection in mice (bioluminescence imaging). It is filed as in vivo, Plasmodium yoelii. On the procedure:
Animals receiving an im injection of 30 mg/kg ELQ-331 in sesame oil were challenged by inoculation with 10,000 P. yoelii luciferase expressing parasites (PyXNL non-lethal strain, luc^+) at two different time points, 48 days and 137 days post im injection (Note that separate groups of mice were used for these two challenges). For details of our experimental methods please refer to the work proposed section as well as published papers by Qigui Li (17) and Kami Kim (18). Sporozoites were obtained by dissection of infected mosquitoes, A. stephensi, and purification over glass wool with assistance from Dr. Brandon Wilder (formerly Sack), who recently joined the OHSU faculty (see letter of collaboration). Non-invasive whole animal
Bioluminescence imaging (BLI) was used to evaluate all study animals for the presence of liver stage infection using an IVIS Spectrum imager. Briefly, on the day of analysis mice received a single ip injection with a luciferin solution roughly 10 minutes before imaging. Each animal was placed on the IVIS platform with gaseous isoflurane serving as anesthetic. […] Of interest, we also challenged animals that had received an im injection (dissolved in sesame oil) of two similar ELQ-300 prodrugs, PSPS-173 and PSP6-16F.
Bioluminescent imaging (FIG. 2) was used to analyze the protective effect of im ELQ-300 prodrugs on Plasmodium yoelii liver stages. Mice were infected by inoculation with 10,000 Plasmodium yoelii GFP/luciferase expressing parasites (PyXNL non-lethal strain, luc*). As described in the narrative infected mice received sporozoite injections 48 days and 137 days following im injection with selected ELQ-300 prodrugs dissolved in sesame oil. After sporozoite challenge, mice underwent imaging for detection of bioluminescent signal after 24 and 48 hours and then again on Day 6 post-inoculation. Control mice show bioluminescent signal in the region above the liver of anesthetized mice after 24 hours which becomes more intense by 48 hours after which parasites emerge into the bloodstream as evidenced by widespread signal intensity across the entire animal by 6-days post inoculation.

Series [8] can be described thus: Estimation of compound solubility in sesame oil. Type of series: physicochemical. To be noted: room temperature, remained in solution for at least 72 hrs; for solubility: sesame oil, oil or lipid, thermodynamic from solid. On the procedure:
Generalized method for estimation of compound solubility in sesame oil: Sesame oil (10 μl) was dispensed into a glass vial containing 10 mg of the appropriate ELQ-300 prodrug. The mixture was vortexed and warmed (using a heat gun) to aid dissolution. The solubility of the compound was judged after the sesame oil mixture cooled to room temperature. If the compound was not completely dissolved, additional sesame oil was added in low-volume increments. Importantly, complete dissolution was assured by confirming by visual inspection that the compound remained in solution for at least 72 hrs at room temperature.

Series [9] can be described thus: Pharmacokinetics of intramuscular (im) injections of ELQ-300 prodrugs in sesame oil in mice. As to conditions: at every time point after im injection, Trial 2. Type of series: in vivo. On the procedure:
We dissolved ELQ-331 in sesame oil and administered (30 mg/kg) in a single […] injection into the caudal thigh of mice in two separate trials. Trial 1 served as a pilot study to monitor ELQ-300 blood levels for months following a single im injection. In Trial 2 we adjusted the LC-MS/MS chromatographic protocol to capture prodrug [ELQ-331] as well as [ELQ-300] with early time-points to cover the critical burst phase, a phenomenon known as “dose dumping”. […] In Trial 2, we monitored plasma [ELQ-331] and [ELQ-300] starting 6 hours after im injection. To avoid excessive blood draws, 6 different groups of 4 mice, all treated at the same time, were used in a rotating succession, one group for each time point. FIG. 1 depicts Plasma [ELQ-300], nM, following im injection in mice of 30 mg/kg ELQ-331 (prodrug) in sesame oil. […] At all time-points the [ELQ-300] concentration exceeds the Minimum Fully Effective Concentration (MEC100) of ≈60 nM. All data points are the average values±SEM.
Also shown in FIG. 5 is a composite plot of plasma [ELQ-300] from both trials with remarkable consistency in the results. ELQ-331 outperformed the CALIBR ELQ-300 prodrug (mCAR246) profiled at the 2017 ASTMH meeting by a significant margin, i.e., Day 28 bloodstream [ELQ-300] levels for mCAR246=181±59 (30 mg/kg, unknown formulation) vs. 446±22 nM (avg.±SEM) for prodrug ELQ-331 in (30 mg/kg, sesame oil).

Where [10] appears, read: challenge 137 days (4½ months) after single im injection in sesame oil.

We go through 12 compounds from US20200369616A1, “ALKOXYCARBONATE ESTER PRODRUGS FOR USE AS ANTIMALARIAL AGENTS” (OREGON HEALTH & SCIENCE UNIVERSITY, priority 2019, published 2020).

Values after ≈ are worked out from the molar mass of the structure shown. “Also recorded” adds a separate entry of the source. Read-outs that look alike come from different tables or passages of the source.

For `COc1cc2[nH]c(C)c(-c3ccc(Oc4ccc(OC(F)(F)F)cc4)cc3)c(=O)c2cc1Cl` [ELQ-300, 6-Chloro-7-methoxy-2-methyl-3-[4-[4-(trifluoromethoxy)phenoxy]phenyl]-4(1H)-quinolinone], the “minimum effective concentration (plasma ELQ-300)” value in series [1] is 83 nM. For the same compound, the metabolic stability result in [2], in series [3] and in [4] was “metabolically stable” throughout. In the series with malaria-infected mice (4-day Peters Test), the ED50 (in general, the dose at which the effect has come halfway, by size or by number of responders) was 0.02 mg/kg. The curative dose in the series with malaria-infected mice (4-day Peters Test) is reported as 0.3 to 1 mg/kg. In the series with malaria-infected mice (relative to ATV), the “fold more effective than ATV in vivo in treatment of malaria-infected mice” value is 30 fold. Moreover, the “IC50's vs. multidrug resistant P. falciparum strains” value in series [5] is listed as “low nanomolar”. The “selectivity for the parasite over the host cyt bc1” value at P. falciparum cyt bc1 is 10,000 fold. Besides, the “potency vs. ATV resistant parasites” value in the series on ATV resistant parasites is “equal potency”.

Take `CCOC(=O)OCOc1c(-c2ccc(Oc3ccc(OC(F)(F)F)cc3)cc2)c(C)nc2cc(OC)c(Cl)cc12` [ELQ-331, ((6-chloro-7-methoxy-2-methyl-3-(4-(4-(trifluoromethoxy)phenoxy)phenyl)quinolin-4-yl)oxy) methyl ethyl carbonate]: in series [6], the “cure of patent malaria infections in mice” value is given as “single dose cures”. Moreover, the “protection against sporozoite challenge” value in series [7] (challenge 48 days after single im injection in sesame oil) is on record as “fully protected”; in series [7] (setting [10]), “complete protection; also recorded: fully protected”. The “duration of protection in mice with a single im injection” value in series [7] (single im injection) is “more than 4 months”. In addition, the “bioluminescent signal (liver stage infection)” value in series [7] (sporozoite challenge 48 days after 30 mg/kg im injection (Trial 2)) and in series [7] (sporozoite challenge 137 days after 30 mg/kg im injection (Trial 1)) was “no detectable bioluminescent signal” each time. In series [8], the solubility – broadly, the concentration that dissolves in the medium under given conditions – was 125 mg/mL (≈ 216 mM). Further, the “ratio of ELQ-300/ELQ-331 in plasma” value in [9] is reported as “very large”.

With `COC(=O)OCOc1c(-c2ccc(Oc3ccc(OC(F)(F)F)cc3)cc2)c(C)nc2cc(OC)c(Cl)cc12` [ELQ-487], the “Sesame Oil Solubility” value in series [8] is 91 mg/mL.

As for `CCCOC(=O)OCOc1c(-c2ccc(Oc3ccc(OC(F)(F)F)cc3)cc2)c(C)nc2cc(OC)c(Cl)cc12` [ELQ-488], the “Sesame Oil Solubility” value in series [8] is listed as 83 mg/mL.

On to `CCCCOC(=O)OCOc1c(-c2ccc(Oc3ccc(OC(F)(F)F)cc3)cc2)c(C)nc2cc(OC)c(Cl)cc12` [ELQ-489], for which, in [8], the “Sesame Oil Solubility” value is on record as 71 mg/mL.

Take `CCCCCOC(=O)OCOc1c(-c2ccc(Oc3ccc(OC(F)(F)F)cc3)cc2)c(C)nc2cc(OC)c(Cl)cc12` [ELQ-490, ((6-chloro-7-methoxy-2-methyl-3-(4-(4-(trifluoromethoxy)phenoxy)phenyl)quinolin-4-yl)oxy)methyl pentyl carbonate]: the melting point (usually the temperature, or range, at which the solid turns liquid) was found to be 109 °C. For the same compound, the solubility in series [8] was 83 mg/mL (≈ 134 mM).

On to `CCCCCCOC(=O)OCOc1c(-c2ccc(Oc3ccc(OC(F)(F)F)cc3)cc2)c(C)nc2cc(OC)c(Cl)cc12` [ELQ-491, ((6-chloro-7-methoxy-2-methyl-3-(4-(4-(trifluoromethoxy)phenoxy)phenyl)quinolin-4-yl)oxy)methyl hexyl carbonate], for which the melting point was found to be 79 °C. Further, in [8], the solubility is 100 mg/mL (≈ 158 mM).

As for `CCCCCCCOC(=O)OCOc1c(-c2ccc(Oc3ccc(OC(F)(F)F)cc3)cc2)c(C)nc2cc(OC)c(Cl)cc12` [ELQ-492, ((6-chloro-7-methoxy-2-methyl-3-(4-(4-(trifluoromethoxy)phenoxy)phenyl)quinolin-4-yl)oxy)methyl heptyl carbonate], the solubility in [8] was 71 mg/mL (≈ 110 mM).

The compound `CCCCCCCCOC(=O)OCOc1c(-c2ccc(Oc3ccc(OC(F)(F)F)cc3)cc2)c(C)nc2cc(OC)c(Cl)cc12` [ELQ-493, ((6-chloro-7-methoxy-2-methyl-3-(4-(4-(trifluoromethoxy)phenoxy)phenyl)quinolin-4-yl)oxy)methyl octyl carbonate] returned a melting point of 54 °C. Moreover, the solubility in [8] was 100 mg/mL (≈ 151 mM).

For `CCCCCCCCCOC(=O)OCOc1c(-c2ccc(Oc3ccc(OC(F)(F)F)cc3)cc2)c(C)nc2cc(OC)c(Cl)cc12` [ELQ-494], in series [8], the “Sesame Oil Solubility” value is 333 mg/mL.

Turning to `CCCCCCCCCCOC(=O)OCOc1c(-c2ccc(Oc3ccc(OC(F)(F)F)cc3)cc2)c(C)nc2cc(OC)c(Cl)cc12` [ELQ-495, ((6-chloro-7-methoxy-2-methyl-3-(4-(4-(trifluoromethoxy)phenoxy)phenyl)quinolin-4-yl)oxy)methyl decyl carbonate], the melting point is 55 °C. Also, the solubility in series [8] is at least 500 mg/mL.

On to `CCCCCCCOC(=O)OCOc1c(-c2ccc(Oc3ccc(OC(F)(F)F)cc3)cc2)c(C)nc2cc(OC)c(Cl)cc12` [PSP5-173], for which, in series [7] (setting [10]), the “protection against sporozoite challenge” value is “partially protected”. In addition, in series [7] (challenge 137 days after im injection), the “mice that developed blood stage infection” value is “One of three”.
